Results taken from US20260027101A1, “BACTERIAL TOPOISOMERASE INHIBITORS” (priority 2022, published 2026).
Values after ≈ are worked out from the molar mass of the structure shown. Read-outs that look alike come from different tables or passages of the source.

Legend:
Format in all cases: cell-based
[1] = tested on: Acinetobacter baumanii ATCC 19606; experiment: MIC, Acinetobacter baumanii ATCC 19606; details: Acinetobacter baumannii
Experimental: (§1) Minimum inhibitory concentrations (MICs) were determined in triplicate according to Clinical and Laboratory Standards Institute (CLSI) guidelines using one or more strains of S. aureus or selected Gram-negative bacteria. […] Compounds were also assayed using a USA300 (Hidron, A. I., et al., Emergence of Community-Acquired Meticillin-Resistant Staphylococcus aureus Strain USA300 as a Cause of Necrotising Community-Onset Pneumonia. Lancet Infect. Dis. 2009, 9. 384-392) isolate of MRSA as well as a S. aureus strain isolated from a cystic fibrosis patient.

[2] = tested on: Staphylococcus aureus ATCC 29213; experiment: MIC, S. aureus ATCC 29213 (CLSI)
Experimental: as §1

[3] = tested on: Staphylococcus aureus CF isolate; experiment: MIC, S. aureus cystic fibrosis isolate (CLSI); details: read-out: MIC against Staphylococcus aureus CF isolate
Experimental: as §1

[4] = tested on: Staphylococcus aureus USA300 (MRSA isolate); experiment: MIC, S. aureus USA300 MRSA isolate (CLSI); details: read-out: MIC against Staphylococcus aureus USA300
Experimental: as §1

[5] = tested on: Escherichia coli ATCC 25922; experiment: MIC, Escherichia coli ATCC 25922
Experimental: as §1

[6] = tested on: Salmonella enterica ATCC 14028; experiment: MIC, Salmonella enterica ATCC 14028
Experimental: as §1

[7] = tested on: Pseudomonas aeruginosa ATCC 27853; experiment: MIC, Pseudomonas aeruginosa ATCC 27853
Experimental: as §1

[8] = tested on: Salmonella enterica 14028 ΔtolC (efflux-deficient strain); experiment: microbe, parasite or virus in culture; details: for MIC: Salmonella enterica, read-out: MIC against Salmonella enterica 14028 ΔtolC
Experimental: as §1

[9] = tested on: Staphylococcus aureus M121K (29213-derived strain, GyrA substitution); experiment: microbe, parasite or virus in culture; details: read-out: MIC against Staphylococcus aureus M121K
Experimental: as §1

[10] = tested on: Staphylococcus aureus D83N (29213-derived strain, GyrA substitution); experiment: microbe, parasite or virus in culture; details: read-out: MIC against Staphylococcus aureus D83N
Experimental: as §1

[11] = ATCC19606, read-out: MIC against Acinetobacter baumanii ATCC 19606
[12] = ATCC29213, read-out: MIC against Staphylococcus aureus ATCC 29213
[13] = ATCC25922, read-out: MIC against Escherichia coli ATCC 25922
[14] = ATCC14028, read-out: MIC against Salmonella enterica ATCC 14028
[15] = ATCC27853, read-out: MIC against Pseudomonas aeruginosa ATCC 27853
[16] = ATCC19606, strain ATCC 19606, read-out: MIC against Acinetobacter baumanii ATCC 19606
[17] = ATCC29213, strain ATCC 29213, triplicate, CLSI, read-out: MIC against Staphylococcus aureus ATCC 29213
[18] = USA300 MRSA isolate, ciprofloxacin-resistant
[19] = ATCC25922, strain ATCC 25922, read-out: MIC against Escherichia coli ATCC 25922
[20] = ATCC14028, strain ATCC 14028, read-out: MIC against Salmonella enterica ATCC 14028
[21] = ATCC27853, strain ATCC 27853, read-out: MIC against Pseudomonas aeruginosa ATCC 27853

SMILES | MIC [1, 11] [µg/mL] | MIC [2, 12] [µg/mL] | MIC [3] [µg/mL] | MIC [4] [µg/mL] | MIC [5, 13] [µg/mL] | MIC [6, 14] [µg/mL] | MIC [7, 15] [µg/mL] | MIC [8] [µg/mL] | MIC [9] [µg/mL] | MIC [10] [µg/mL] | MIC [1, 16] [µg/mL] | MIC [2, 17] [µg/mL] | MIC [4, 18] [µg/mL] | MIC [5, 19] [µg/mL] | MIC [6, 20] [µg/mL] | MIC [7, 21] [µg/mL] | MIC ([3]; isolate from individual with cystic fibrosis) [µg/mL] | MIC against Salmonella enterica 14028 ΔtolC ([8]; efflux-deficient strain) [µg/mL]
COc1ccc2ncc(F)c(CCN3CCC(/C=C/c4ccc5c(c4)NC(=O)CO5)CC3)c2n1 [Example 3, (E)-6-(2-(1-(2-(3-fluoro-6-methoxy-1,5-naphthyridin-4-yl)ethyl)piperidin-4-yl)vinyl)-2H-benzo[b][1,4]oxazin-3(4H)-one] | 8 (≈ 17.3 µM) | 0.5 (≈ 1.08 µM) | 1 (≈ 2.16 µM) | ≤ 0.25 | 4 (≈ 8.65 µM) | 16 (≈ 34.6 µM) | 4 (≈ 8.65 µM) | 0.25 (≈ 0.541 µM) | 16 (≈ 34.6 µM) | 16 (≈ 34.6 µM) |  |  |  |  |  |  |  | 
O=c1ccc2ncc(=O)n3c2n1C[C@H]3CN1CCC(NCc2cc3c(cn2)OCCC3)CC1 [gepotidacin, reference compound] |  |  | 0.125 to 0.5 (≈ 0.279 to 1.11 µM) |  |  |  |  | 0.125 to 0.5 (≈ 0.279 to 1.11 µM) | 8 to 32 (≈ 17.8 to 71.3 µM) | 4 to 32 (≈ 8.92 to 71.3 µM) | 32 to 64 (≈ 71.3 to 143 µM) | 0.25 to 1 (≈ 0.557 to 2.23 µM) | 0.125 to 1 (≈ 0.279 to 2.23 µM) | 0.5 to 2 (≈ 1.11 to 4.46 µM) | 2 to 8 (≈ 4.46 to 17.8 µM) | 2 to 16 (≈ 4.46 to 35.7 µM) |  | 
COc1ccc2ncc(F)c(CCN3CCC([C@@H]4OC(=O)O[C@H]4c4ccc(C)cc4)CC3)c2n1 [Example 31, (4S,5S)-4-(1-(2-(3-fluoro-6-methoxy-1,5-naphthyridin-4-yl)ethyl)piperidin-4-yl)-5-(p-tolyl)-1,3-dioxolan-2-one] |  |  |  |  |  |  |  | 8 (≈ 17.2 µM) | > 32 | > 32 | 64 (≈ 137 µM) | 2 (≈ 4.3 µM) | 2 (≈ 4.3 µM) | > 64 | > 64 | > 64 | 4 (≈ 8.59 µM) | 
COc1ccc2ncc(F)c(CCN3CCC(/C=C/c4ccc5c(c4)OCCO5)CC3)c2n1 [Example 2, (E)-8-(2-(4-(2-(2,3-dihydrobenzo[b][1,4]dioxin-6-yl)vinyl)piperidin-1-yl)ethyl)-7-fluoro-2-methoxy-1,5-naphthyridine] | 8 (≈ 17.8 µM) | 0.25 (≈ 0.556 µM) | 0.5 (≈ 1.11 µM) | 0.5 (≈ 1.11 µM) | 8 (≈ 17.8 µM) | 64 (≈ 142 µM) | 64 (≈ 142 µM) |  | 2 (≈ 4.45 µM) | 2 (≈ 4.45 µM) |  |  |  |  |  |  |  | 0.125 (≈ 0.278 µM)
COc1ccc2ncc(F)c(CCN3CCC(/C=C\c4ccc5c(c4)OCCO5)CC3)c2n1 [Example 11, (Z)-8-(2-(4-(2-(2,3-dihydrobenzo[b][1,4]dioxin-6-yl)vinyl)piperidin-1-yl)ethyl)-7-fluoro-2-methoxy-1,5-naphthyridine] | 64 (≈ 142 µM) | 8 (≈ 17.8 µM) | 9 (≈ 20 µM) | 8 (≈ 17.8 µM) | > 64 | > 64 | 64 (≈ 142 µM) | 4 (≈ 8.9 µM) | > 16 | > 16 |  |  |  |  |  |  |  | 
COc1ccc2ncc(F)c(CCN3CCC(C(=O)Cc4ccc(C)cc4)CC3)c2n1 [Example 22, 1-(1-(2-(3-fluoro-6-methoxy-1,5-naphthyridin-4-yl)ethyl)piperidin-4-yl)-2-(p-tolyl)ethan-1-one] | 32 (≈ 75.9 µM) | 0.125 (≈ 0.297 µM) | 0.125 to 0.5 (≈ 0.297 to 1.19 µM) | 0.125 to 0.5 (≈ 0.297 to 1.19 µM) | 16 (≈ 38 µM) | 64 (≈ 152 µM) | > 64 | 0.5 (≈ 1.19 µM) | 8 (≈ 19 µM) | 4 (≈ 9.49 µM) |  |  |  |  |  |  |  | 
